Experimental data as given in US20260158149A1, “GLYCOSYLATED PRODRUGS” (UNIVERSITEIT LEIDEN, priority 2021, published 2026).
Read-outs that look alike come from different tables or passages of the source.

Columns and labels:
[1] = tested on: neutrophils migrated to the wounded area; test: Tail fin amputation assay: neutrophil migration to the wounded area; assay type: in vivo, Zebrafish (Danio rerio)
Experimental: Zebrafish (Danio rerio) were maintained and handled according to the guidelines from the Zebrafish Model Organism Database (https://zfin.org/) and in compliance with the directives of the local animal welfare committee of Leiden University. To maintain circadian rhythmicity, adult fish were exposed to a 14 h light and 10 h dark cycle. Fertilization was performed by natural spawning at the beginning of the light period. Fertilized eggs were collected and raised at 28° C. in egg water (60 μg/ml Instant Ocean sea salts and 0.0025% methylene blue). The following zebrafish lines were used in this study: AB/TL wild type, the transgenic lines Tg(mpx:GFP^i114/mpeg1:mCherry^umsF001) (Bernut et al., (2014). Mycobacterium abscessus cording prevents phagocytosis and promotes abscess formation. Proc Natl Acad Sci USA 111, E943-952; Renshaw et al., (2006). A transgenic zebrafish model of neutrophilic inflammation. Blood 108, 3976-3978), and Tg(9xGCRE-HSV.UI123:EGFP)^ia20 (Benato et al., (2014). A living biosensor model to dynamically trace glucocorticoid transcriptional activity during development and adult life in zebrafish. Mol Cell Endocrinol 392, 60-72), and the mutant lines gba2^−/− (Lelieveld et al., (2019). Role of beta-glucosidase 2 in aberrant glycosphingolipid metabolism: model of glucocerebrosidase deficiency in zebrafish. J Lipid Res 60, 1851-1867) and gr^s357 (Ziv et al., (2013). An affective disorder in zebrafish with mutation of the glucocorticoid receptor. Mol Psychiatry 18, 681-691).
For the tail fin amputation experiments, 3 days post fertilization (dpf) larvae from the Tg(mpx:GFP^i114/mpeg1:mCherry^umsF001) line were anesthetized in 0.02% buffered aminobenzoic acid ethyl ester (tricaine) in egg water and placed on a 2% agarose-coated petri dish. The tails were partially amputated with a 1 mm sapphire blade (World Precision Instruments) under a Leica M165C stereomicroscope (Leica Microsystems, Wetzlar, Germany). Chemical treatment (or 0.1% DMSO as vehicle treatment) was started at 2 h before the amputation (pretreatment) and was continued for 4 h after the tail fin amputation (20 larvae per group, unless indicated otherwise), at which time point the larvae were fixed in 4% paraformaldehyde (PFA) overnight at 4° C. and stored at 4° C. until further examination. In some experiments, a 24 h treatment with miglustat, ME656 or MZ31 was started at 2 dpf, and these treatments were continued during the pretreatment and treatment with the other chemicals. For imaging of larvae from the Tg(mpx:GFP^i114/mpeg1:mCherry^umsF001) line, a LeicaMZ16FA fluorescence stereomicroscope with LAS 3.7 software was used. Neutrophils were detected by GFP fluorescence and macrophages by mCherry fluorescence. The neutrophil numbers were determined by blinded manual counting in a pre-determined area. When larvae from gba2^−/− or gr^s357mutant lines were used, neutrophil labeling was performed with the TSA fluorescein detection kit (PerkinElmer) for specific staining of Myeloperoxidase (Mpx)-positive cells, following the manufacturer's instructions.

[2] = Larval body length; assay type: in vivo, Zebrafish (Danio rerio); conditions: 5 dpf, treatment from 2 hpf
Experimental: (§1) When the regeneration of the tail fins after wounding or the larval body length was used as a readout, chemical treatments of the embryos were started at 2 hours post fertilization (hpf) and continued until 5 dpf. During this period, solutions were refreshed daily. At 5 dpf, larvae were imaged using a LeicaMZ16FA fluorescence stereomicroscope supported by LAS 3.7 software, and the length of the larvae was measured using ImageJ software (15 larvae per treatment group). For the regeneration experiments, tail fins were amputated at 2 dpf and larvae were imaged at 5 dpf (15 larvae per treatment group). The newly grown tissue can be distinguished from the old tissue, enabling precise measurement of the size of the newly grown tissue using ImageJ software.

[3] = tested on: regenerated tail fin; test: Regeneration of the tail fin after wounding; assay type: in vivo, Zebrafish (Danio rerio); conditions: 5 dpf larvae, wounded at 2 dpf
Experimental: as §1

[4] = tested on: Gr; test: Transactivation activity of Gr in Tg(9xGCRE-HSV.UI23:EGFP) reporter line; assay type: in vivo, Zebrafish (Danio rerio); conditions: 24 h treatment, 3 dpf larvae
Experimental: The Tg(9xGCRE-HSV.UI23:EGFP)^ia20 zebrafish reporter line expresses enhanced green fluorescent protein (EGFP) under the control of a promoter containing an array of nine GREs. To study the effect of chemical treatments on the transactivation activity of the Gr, 15 zebrafish embryos per group (2 dpf) were treated with the indicated compounds for 24 hours. The transactivation activity of Gr induced by the treatments was assessed using a LeicaMZ16FA fluorescence stereomicroscope supported by LAS 3.7 software. The integrated intensity of the EGFP signal in the larvae was determined using ImageJ software.

[5] = tested on: IL-6; test: CAIA model: serum IL-6 by ELISA; assay type: in vivo, mouse
Experimental: All mice received 1.5 mg of a CAIA-cocktail (Chondrex) intravenously on day 1, followed by intraperitoneal (i.p.) injection of 50 μg LPS (Chondrex) on day 4. Mice were randomly divided into six groups. […] Scores were assigned blinded. […] The blood collection on day 14 was performed after 6 h fasting. On day 15, mice were sacrificed using carbon dioxide, and tissue samples were collected that were immediately frozen in liquid nitrogen. Applied humane endpoints were a total body weight loss of >20% in comparison to the day of LPS treatment or reaching an arthritis score of 45.
IL-6 concentrations were determined by ELISA in the serum collected at days 10 and 15, using the IL-6 mouse ELISA kit (Invitrogen), following the manufacturer's protocol. The insulin concentration was determined in serum collected at day 14, using the Ultra-sensitive mouse insulin ELISA kit (Crystal Chem), following the manufacturer's protocol. Corticosterone concentrations were determined in serum collected at day 15, using the Corticosterone HS (high sensitivity) enzyme immunoassay kit (Immunodiagnostic Systems), following the manufacturer's protocol. Expression levels of various GR target genes were determined by qPCR in the tissue samples (homogenized in TRIzol Reagent (ThermoFisher)) collected at day 15.

[6] = tested on: collagen antibody-induced arthritis (CAIA)

C[C@]12C=CC(=O)C=C1CC[C@@H]1[C@@H]2[C@@H](O)C[C@@]2(C)[C@H]1CC[C@]2(O)C(=O)CO[C@@H]1O[C@H](CO[C@@H]2O[C@H](CO)[C@@H](O)[C@H](O)[C@H]2O)[C@@H](O)[C@H](O)[C@H]1O [GbPdn, 21-O-Gentobiose-Prednisolone]
reduction in neutrophil migration in the presence of MZ31 ([1]; GBA2 inhibitor MZ31): abolished by MZ31
migration of neutrophils towards the wounded area ([1]; wild type larvae, 4 h after tail wounding): decrease in the migration of neutrophils
larval length [2]: neither did it affect the length of the larvae
tissue regeneration (length of regenerated tail fin) [3]: small effect
tissue regeneration with MZ31 ([3]; GBA2 inhibitor MZ31): dependent on Gba2 activity
transactivation activity of Gr (GFP signal in GRE:GFP reporter fish line) [4]: neither GPdn nor GbPdn induced the transactivation activity of the Gr
serum IL-6 level compared to other treated groups ([5]; day 10, 12.5 mg/kg): slightly higher IL-6 concentration compared to the other groups
serum IL-6 level compared to the vehicle group ([5]; day 10, all treatment groups): significant reduction of the IL-6 level
serum IL-6 level ([5]; day 15, 12.5 mg/kg): a very low level was detected in two (out of four) mice
serum IL-6 level ([5]; day 15, all groups except 12.5 mg/kg GbPdn): undetectable
day of maximal effect on arthritis score ([6]; 12.5 mg/kg i.p. daily from day 7): 15 days
day of maximal effect on arthritis score ([6]; 25 mg/kg i.p. daily from day 7): 14 days
day of maximal effect on arthritis score ([6]; 50 mg/kg i.p. daily from day 7): 13 days
arthritis scores after treatment initiation ([6]; all dose groups, daily i.p. from day 7): decreased rapidly after treatment initiation
